Source: patent publication US5919765A, “Inhibitors of factor XA” (COR Therapeutics, Inc., priority 1995, dated 1999)
pIC50: −log10 of the molar value. Numbered stars: 1 amine (or outer) side, 2 acyl side, 3 side chain; on linkers, the order of the positions; unused ones are H or OH. Square brackets hold non-standard residues; d marks the D form. Peptide text beside a SMILES is read from it. * marks the point of attachment. dCit = NC(=O)NCCC[C@@H](N)C(=O)O; Suc = O=C(CCC(=O)[*:2])[*:1]; Boc = CC(C)(C)OC(=O)*; Aib = CC(C)(N)C(=O)O

What was measured:
thrombin = biological target: T1, thrombin (Homo sapiens, UniProt P00734); assay: Thrombin amidolytic assay (chromogenic substrate Chromozym TH); format: biochemical; settings: read-out: Inhibitory Activity (IC50) Thrombin
T1 construct: The formation of thrombin is the result of the proteolytic cleavage of its precursor prothrombin

Rabbits [1] = assay: Rabbit deep vein thrombosis model; format: in vivo
From the text: Haemost. […] Rabbits were anesthetized with I.M. injections of Ketamine, Xylazine, and Acepromazine cocktail.

Rabbits [2] = assay: Cuticle Bleeding Time model in rabbits; format: in vivo, rabbit; settings: 1500 μg/kg+14.85 μg/kg/min
Protocol: In an ancillary study, a Cuticle Bleeding Time model was used to evaluate the effect of test compounds on bleeding time (BT) measurements in rabbits. The standardized protocol involved anesthesia and catheterization of rabbits as previously described in this Example 43. To measure BT, a toe nail was cut 5 mm from the base of the cuticle with a canine nail trimming device. Time until cessation of bleeding was recorded by wicking the blood on to BT blotting paper in 30 second intervals. Test compound was administered as a bolus followed by infusion regimen. Two BT measurements were obtained prior to administration of test compound and three BT measurements accomplished serially after initiation of steady state infusion of test compound. BT measurements were allowed to continue for up to 30 minutes at which time it was stopped with application of silver nitrate. Blood samples were obtained just prior to all BT measurements and processed for measurement of hematological and coagulation parameters.

[3] = rabbit venous thrombosis model, bolus + infusion

| SMILES | pIC50 (thrombin) | other results |
| --- | --- | --- |
| CC(C)(C)OC(=O)N[C@H](CCCCN)C(=O)NCC(=O)N[C@H](C=O)CCCNC(=N)N [Boc--D--Lys--Gly--Arg--H, Boc-D-Lys-Gly-Arg--H] (Boc-[dK]-Gly-Arg-aldehyde) | < 4.00 |  |
| CC(C)(C)OC(=O)N[C@H](CCCNC(=N)N)C(=O)NCC(=O)N[C@H](C=O)CCCNC(=N)N [Boc--D--Arg--Gly--Arg--H, Boc-D-Arg-Gly-Arg--H] (Boc-[dR]-Gly-Arg-aldehyde) |  | % Inhibition of Thrombosis (Rabbits [1]; 200 + 1.98 μg/kg + μg/kg/min): 8.4%; % Inhibition of Thrombosis (Rabbits [1]; 600 + 5.94 μg/kg + μg/kg/min): -6.6%; antithrombotic efficacy (Rabbits [1]; [3]): demonstrated antithrombotic efficacy at the higher doses evaluated |
| CC(C)(C)OC(=O)N[C@H](CCCN=C(N)N)C(=O)NCC(=O)N[C@H](C=O)CCCN=C(N)N [Boc--D--Arg--Gly--Arg--H, Boc-D-Arg-Gly-Arg--H] (Boc-[dR]-Gly-Arg-aldehyde) |  | effects on hematological parameters as compared to saline controls (Rabbits [1]; [3]): no significant effects; changes in hematological parameters from pre to post administration (Rabbits [2]): no significant changes |
| CC(C)(C)OC(=O)N[C@H](CCCNC(N)=O)C(=O)NCC(=O)N[C@H](C=O)CCCNC(=N)N [Boc--D--Cit--Gly--Arg--H, Boc-D-Cit-Gly-Arg--H] (Boc-[dCit]-Gly-Arg-aldehyde) | < 4.00 |  |
| N=C(N)NCCC[C@@H](C=O)NC(=O)CNC(=O)[C@@H](CCCNC(=N)N)NC(=O)CCC(=O)O [HOOC(CH2)2 CO--D--Arg--Gly--Arg--H, Succinoyl-D-Arg-Gly-Arg--H] (Suc-[dR]-Gly-Arg-aldehyde) | < 4.00 |  |
| CCOC(=O)N[C@H](CCCNC(=N)N)C(=O)NCC(=O)N[C@H](C=O)CCCNC(=N)N [EtOCO--D--Arg--Gly--Arg--H, EtO2 C-D-Arg-Gly-Arg--H] | < 4.00 |  |
| CC(C)(C)OC(=O)N[C@H](CCCNC(=N)N)C(=O)NC(C)(C)C(=O)N[C@H](C=O)CCCNC(=N)N [Boc--D--Arg--Aib--Arg--H, Boc-D-Arg-Aib-Arg--H] (Boc-[dR]-[Aib]-Arg-aldehyde) | < 3.30 |  |
| N=C(N)NCCC[C@@H](C=O)NC(=O)CNC(=O)[C@@H](CCCNC(=N)N)NC(=O)CC(=O)O [HOOCCH2 CO--D--Arg--Gly--Arg--H, Malonoyl-D-Arg-Gly-Arg--H] | < 4.00 |  |
